Test results reported in publication PMC11215778 (Journal of Medicinal Chemistry, 2024).
Where two headings read alike, the source gives them in different places.

Key:
[1] = Cytotoxicity assay (CellTiter-Glo) on normal human dermal fibroblasts; type: cell-based; settings: normal human dermal fibroblasts (NHDF)
Method: The cytotoxicity of the compounds was evaluated in nontumor normal human dermal fibroblasts (NHDF) purchased from ATCC (PCS-201-012, Manassas, VA, USA). The cells were negatively tested for the presence of mycoplasma (cat. #: LT07-318 MycoAlert Mycoplasma Detection kit, Lonza). The cells were cultivated in DMEM high glucose 4.5 g/L medium (cat. #: R8758, Merck, Germany). The medium was supplemented with 10% fetal bovine serum (cat. #: F7524, Merck, Germany; inactivated at 56 °C for 30 min) and 1.0% of L-glutamine (cat. #: G7513, Merck, Germany) without antibiotics. Cells were seeded in 384-well format white micro plates (cat. #: 164610, Nunc, Thermo Fisher Scientific, USA) at a concentration of 60,000 cells per mL and left to rest overnight. Next day, 1 and 10 μM concentrations of the tested compounds were added in triplicates. The cells were cultivated at 37 °C and 5% CO2 for 72 h after which a luminescent cell viability assay (CellTiter-Glo 2.0, cat. #: Promega, Madison, USA) was added. The plate was left on a shaker (350 rpm) in the dark for 20 min at RT. Luminescence was measured by a Spark multimode reader from Tecan (Tecan Group Ltd., Switzerland). The signal of the compound-treated cells was related to the value of the untreated control, which was arbitrarily set to 100% viability.

[2] = target: T1, ADRA1A (Homo sapiens, UniProt P35348); settings: read-out: ADRA1A IC50; antagonist activity, receptor stimulated with EC80 of epinephrine, Chem-1 cells
T1 sequence (P35348 1-466): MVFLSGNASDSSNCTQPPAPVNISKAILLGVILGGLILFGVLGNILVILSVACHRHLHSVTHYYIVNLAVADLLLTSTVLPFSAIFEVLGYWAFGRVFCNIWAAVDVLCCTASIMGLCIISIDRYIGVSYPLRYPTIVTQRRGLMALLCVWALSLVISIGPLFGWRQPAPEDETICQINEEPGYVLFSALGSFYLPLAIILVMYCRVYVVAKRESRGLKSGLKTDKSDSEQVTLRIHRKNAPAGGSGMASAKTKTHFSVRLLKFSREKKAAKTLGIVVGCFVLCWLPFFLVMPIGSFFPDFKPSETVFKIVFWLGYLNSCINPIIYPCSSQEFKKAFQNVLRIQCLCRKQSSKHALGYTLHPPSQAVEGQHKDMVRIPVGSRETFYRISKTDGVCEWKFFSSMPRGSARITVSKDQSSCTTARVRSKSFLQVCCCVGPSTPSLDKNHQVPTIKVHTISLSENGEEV
Method: All prepared compounds were tested for their antagonistic activity using calcium flux assays on cells overexpressing the ADRA2A or ADRA1A adrenergic receptor as a primary screen (Table 2).
Chem-1 cells overexpressing ADRA2A or 1A adrenergic receptors were purchased from Merck Millipore (cat. #: HTS096RTA and HTS087RTA; Merck, Germany). The cells were cultured according to the manual. […] After 30 min of incubation with the assay buffer at 37 °C and 5% CO2, the cells were incubated at RT in a dark place for another 15 min. […] All compounds were added by an Agilent Bravo Automated Liquid Handling Platform (Agilent Technologies, USA). […] Before each kinetic measurement, the background fluorescence (F0) was measured, and the result was calculated as (Fmax – F0)/F0.

[3] = Plasma stability assay, human plasma; type: in vitro ADME; settings: pooled plasma, read-out: Plasma stability % remaining at 6 h, hum
Method: […] The reactions were terminated by adding 4 vol of ice-cold methanol, and the samples were then mixed vigorously, frozen at −20 °C for 1 h, and left overnight at 8 °C. After that, the samples were centrifuged, and the supernatant was analyzed by means of LC–MS/MS Sciex 6500 triple quadrupole (Sciex, Framingham, MA, USA). Zero time points were prepared by adding ice-cold methanol to the compound prior to the addition of the plasma.

[4] = Plasma stability assay, rat plasma; type: in vitro ADME
[5] = Microsomal stability, human liver microsomes; type: in vitro ADME; settings: pooled liver microsomes, pH 7.4, read-out: Microsomal stability CLint, hum
Method: (§1) . Zero time points were prepared by adding ice-cold methanol to a mixture of the compound with cofactors prior to the addition of microsomes. […]. Intrinsic clearance (CLint) was calculated using the following formula: [drawing 1] where V = incubation volume per milligram of microsomal protein (μL/mg) and t1/2 = microsomal half-life.

[6] = Microsomal stability, rat liver microsomes; type: in vitro ADME; settings: pH 7.4
Method: as §1

[7] = 10 uM, read-out: NHDF viability at 10 uM (supplement csv)
[8] = 10 μM, untreated control = 100%, read-out: NHDF Viability 10 μM
[9] = human liver microsomes 0.5 mg/mL, 10 μM compound

Compound	viability at 72 h, 1 µM [1]	viability at 72 h, 10 µM [1, 7]	viability at 72 h, 10 µM [1, 8]	IC50 [2]	remaining at 6 h, 5 μM ([3]; human plasma, 5 μM, 37 °C)	remaining at 6 h, 5 μM [4]	microsomal CLint at 10 µM [5, 9]	microsomal CLint at 10 µM ([6]; rat liver microsomes)	remaining at 6 h, 5 μM ([3]; human)	microsomal CLint at 10 µM ([5]; human)	microsomal CLint at 10 µM ([6]; rat, liver microsomes)
O=C(OC1CCCC1)[C@@H]1[C@H]2C[C@H]3c4[nH]c5ccccc5c4CCN3C[C@@H]2CC[C@@H]1O [Compound 3d, 17-α-Hydroxyyohimban-16-α-carboxylic Acid Cyclopentyl Ester]	113%	113%	117%	2640 nM							
CN1CC[C@H](OC(=O)[C@@H]2[C@H]3C[C@H]4c5[nH]c6ccccc6c5CCN4C[C@@H]3CC[C@@H]2O)C1 [Compound 4p, 17-α-Hydroxyyohimban-16-α-carboxylic Acid (S)-N-Methylpyrrolidin-3-yl Ester]	88%	80%	80%	3820 nM	109 ± 2%	85 ± 2%	10 µL/min/mg	1 ± 1 µL/min/mg			
CC(C)OC(=O)[C@@H]1[C@H]2C[C@H]3c4[nH]c5ccccc5c4CCN3C[C@@H]2CC[C@@H]1O [Compound 3b, 17-α-Hydroxyyohimban-16-α-carboxylic Acid Isopropyl Ester]	108%	102%	102%	4160 nM	102%	89%	17 ± 1 µL/min/mg	3 ± 1 µL/min/mg			
CC(C)(C)OC(=O)[C@@H]1[C@H]2C[C@H]3c4[nH]c5ccccc5c4CCN3C[C@@H]2CC[C@@H]1O [Compound 3e, 17-α-Hydroxyyohimban-16-α-carboxylic Acid tert-Butyl Ester]	123%	117%	113%	10500 nM							
CC(C)CCOC(=O)[C@@H]1[C@H]2C[C@H]3c4[nH]c5ccccc5c4CCN3C[C@@H]2CC[C@@H]1O [Compound 3c, 17-α-Hydroxyyohimban-16-α-carboxylic Acid (3-Methylbutyl-1-yl) Ester]	117%	114%	114%	2650 nM							
CCOC(=O)[C@@H]1[C@H]2C[C@H]3c4[nH]c5ccccc5c4CCN3C[C@@H]2CC[C@@H]1O [Compound 3a, 17-α-Hydroxyyohimban-16-α-carboxylic Acid Ethyl Ester]	111%	108%	108%	3340 nM	109 ± 1%	52%	14 µL/min/mg	3 µL/min/mg			
O=C(OC1COC1)[C@@H]1[C@H]2C[C@H]3c4[nH]c5ccccc5c4CCN3C[C@@H]2CC[C@@H]1O [Compound 4r, 17-α-Hydroxyyohimban-16-α-carboxylic Acid Oxetan-3-yl Ester]		102%		1940 nM		89 ± 1%			94 ± 14%	16 ± 1 µL/min/mg	2 ± 1 µL/min/mg
O=C(O[C@H]1CCOC1)[C@@H]1[C@H]2C[C@H]3c4[nH]c5ccccc5c4CCN3C[C@@H]2CC[C@@H]1O [Compound 4q, 17-α-Hydroxyyohimban-16-α-carboxylic Acid (S)-Tetrahydrofuran-3-yl Ester]			112%	537 nM	118%	102 ± 1%	15 ± 1 µL/min/mg	5 ± 1 µL/min/mg			
